Literature values in US20180161299A1, “ESSENTIAL NUTRIENTS AND RELATED METHODS” (Balchem Corporation, priority 2016, published 2018).

Legend:
[1] = pregnant women, choline intake increased from 480 mg to 930 mg

Row | choline excreted in the urine [1] | increase in the amount of B12 analogues present in the GI tract and in the circulation (large oral and systemic doses of B12) | vitamin B12 absorbed by diffusion from the gastrointestinal tract (large oral doses (500 μg to 5000 μg)) | vitamin B12 absorbed (typical oral vitamin B12 supplementations) | Compound
1 | little, if any | – | – | – | C[N+](C)(C)CCO [choline, N,N,N-trimethylethanolammonium cation]
2 | – | more than 10 fold | less than 1% | less than 1% | cobalamin [Vitamin B12]
